# Measured values published in a melting point compilation (Tetko et al.; mined from patent text by program, amines drawn as free bases though some values may be those of a salt).
row,SMILES,melting point
1,NS(=O)(=O)c1ccc(S(=O)(=O)CC(O)CO)cc1 (centres undefined),140 to 147 °C
2,CCNc1nc(SC)ncc1CNc1cc(OC)cc(OC)c1,100 to 105 °C
3,COC(=O)Nc1nc(-c2ccccc2)c(-c2nc3ccccc3c(=O)n2-c2ccc(C)cc2)s1,> 275 °C
4,BrC1Cn2cccc2Sc2ccccc21 (centres undefined),115 to 116 °C
5,Cc1cc2c(cc1C)C(=O)CCC2,47 to 48 °C
6,COC(C)c1cc(N2C(=O)C3=C(CCCC3)C2=O)c(F)cc1Cl (centres undefined),141 to 144 °C
7,N#CSc1cc(C(=O)O)cc([N+](=O)[O-])c1C(=O)c1ccccc1,184 °C
8,NCC(O)C1COc2ccccc2O1 (centres undefined),86 to 88 °C
9,O=C(O)C1CSC(Cc2ccccc2)N1 (mixture of isomers),200 °C
10,Cc1nc(Nc2ccccc2)sc1-c1ccnc(Nc2ccc(N3CCN(Cc4ccccc4)CC3)cc2)n1,227 to 229 °C
11,Fc1ccccc1[C@]1(Cn2nc[nH]c2=S)O[C@H]1c1ccccc1Cl (racemic),179 °C
12,O=C(c1cccs1)C1C(=O)N(C(=O)NS(=O)(=O)Cl)c2ccc(Cl)cc21 (centres undefined),166 to 169 °C
13,Cn1c(-c2ccc(-c3cccs3)cc2)cnc1[C@H](Cc1ccccn1)N(C=O)c1cc2cc(Cl)ccc2o1,110 to 114 °C
14,COc1cc(C(=O)NS(=O)(=O)c2ccccc2Cl)ccc1Cc1cn(C)c2ccc(CC3CCN(C)C3=O)cc12 (centres undefined),128 to 135 °C
15,Cc1cn(C)c2c1N(C(=O)CCN1CCCC1)c1ccccc1NC2=O,185 °C
16,CNC(=O)CC1(C)OCCn2c1c(C)c1ccccc12 (centres undefined),131 to 133 °C
17,Cc1cc(C)c(-c2nc3ccc(C(=O)c4ccccc4)cc3[nH]2)[nH]1,225 to 229 °C
18,Cc1cccc(C)c1N1C(=N)C(C)N(c2c(C)cccc2C)C1C(=O)OCc1ccc(Cl)cc1 (centres undefined),140 to 142 °C
19,Cc1cc(CCC(=O)OC(C)(C)C)nc(-c2nc(=O)c3ccccc3s2)c1,168 to 169 °C
20,CC(=O)N(C)C1Cc2ccc(C(=O)Cn3cnc4cc(-c5ccc(Cl)cc5)sc4c3=O)cc2C1 (centres undefined),276 °C
21,CCCC(=O)Nc1cnc2cc(F)ccc2c1O,306 to 308 °C
22,CN(C)C(=O)C1Cc2c([nH]c3ccccc23)C(c2ccc3c(c2)OCO3)N1C(=O)C=Cc1ccccc1 (centres undefined),175 to 178 °C
23,C#CC(O)c1ncn(C(c2ccccc2)(c2ccccc2)c2ccccc2)n1 (centres undefined),138 to 139 °C
24,NS(=O)(=O)c1ccc(CCN2CC=C(c3c[nH]c(-c4ccc(F)cc4)c3-c3ccncc3)CC2)cc1,220 to 221 °C
25,OC1c2cc(OCc3ccc4cc(F)ccc4n3)ccc2OCC1Cc1cncnc1 (centres undefined),188 to 191 °C

row,SMILES,melting point
1,O=C(N1CCCN(C(=O)C(F)(F)F)CCN(C(=O)C(F)(F)F)CCCN(C(=O)C(F)(F)F)CC1)C(F)(F)F,217 to 218 °C
2,CN(C(N)=O)[C@@H]1c2cc(C#N)ccc2OC(C)(C)[C@H]1O (relative stereo),135 to 137 °C
3,CC(=O)Nc1ccc(Cl)c2c1C(=O)C(NC(C)=O)CN2C(C)=O (centres undefined),206 to 210 °C
4,O=C1NCCc2c(-c3ccsc3)[nH]c3cccc1c23,255 to 256 °C
5,COc1cccc(OC)c1C(=O)Nc1ccc(OCCN2CCCC2)cc1,136 to 140 °C
6,O=C(c1ccccc1)c1cccc2c1CCCC2C(=O)O (centres undefined),164 to 165 °C
7,COc1ccc([C@@H]2Sc3ccccc3N(CCN(C)C)C(=O)[C@@H]2OC(=O)c2ccc([N+](=O)[O-])cc2)cc1,113 to 114 °C
8,O=C(O)c1cccc(C23CC4CC(CC(C4)C2)C3)c1,247 to 249 °C
9,COc1ccc(CN(C)CCCSc2ccc(NC(=O)c3cccc4c(=O)c5ccccc5[nH]c34)cc2)cc1OC,140 °C
10,O=C(O)c1ccc2sc3ccccc3c2c1,281 to 283 °C
11,Cc1cc(COc2ccc(S(=O)(=O)NC[C@@H](C(=O)NO)N3CCN(Cc4ccccc4)CC3)cc2)c2ccccc2n1,188 °C
12,COc1ccc(COc2ccc(CSc3ccc(OCC(=O)O)c4c3CCC4)cc2)cc1,183 to 185 °C
13,COc1ccc(C2=C(c3ccc(S(C)(=O)=O)cc3)C(C)(C)OC2=O)cc1,148 °C
14,O=C(O)c1ccc(OC(F)(F)F)cc1Cl,90.6 to 91.2 °C
15,COCc1cnc2c(NC(=O)c3c(Cl)cccc3Cl)cccc2c1-n1ccnc1,145 to 150 °C
16,O=C(O)CNC(=O)c1nnc2ccc(NCCCN3CCC(OC(c4ccccc4)c4ccccc4)CC3)nn12,182 to 184 °C
17,CCOC(=O)C(C)(C)n1c(=O)[nH]c2c(OC)cccc2c1=O,144 to 145 °C
18,C[Si](Cn1ncnc1I)(c1ccc(F)cc1)c1ccc(F)cc1,102 to 104 °C
19,Cc1cc(C)c2nc(C)n(Cc3ccc(NCC4CCN(C5CCN(C)CC5)CC4)cc3)c2n1,118 to 120 °C
20,Clc1ccc2scc(Br)c2c1,85 to 86 °C
21,CCCCc1c(OCOC(=O)C(C)(C)C)n(-c2ccccc2)n(-c2ccccc2)c1=O,83 to 85 °C
22,CCOC(=O)CSc1cc(C)nc(N)n1,65 to 69 °C
23,COC(=O)c1ccccc1OCC(O)CNC(C)C (centres undefined),78 to 79 °C
24,CCN(CC)CCNC(=O)c1cccc2cc3cccc(I)c3nc12,64 to 66 °C
25,CCOC(=O)NNc1ccc(-c2cccc(C(F)(F)F)c2)nn1,168 to 170 °C

row,SMILES,melting point
1,CCOC(=O)C=CC=Cc1cn(-c2cccnc2)c2ccccc12,112 to 113 °C
2,Cc1ccc2cccc(OCC(=O)c3ccccc3)c2n1,70 to 71 °C
3,NCCCc1cccnc1C(N)=O,153 to 156 °C
4,CCCCc1nc2c(c(=O)[nH]1)CN(C(=O)C(C)(C)C)CC2,167 to 172 °C
5,COc1c(C)cc([N+](=O)[O-])c(NC(C)C)c1[N+](=O)[O-],77.5 to 79 °C
6,CCOCc1nc2c(N)nc3ccccc3c2n1CC1(O)CCN(C(=O)OC(C)(C)C)CC1,195 to 197 °C
7,CNc1c(Cl)cc(C(=O)NCC2CCN(CCCOC)CC2)c2nccn12,125 °C
8,CC(=O)NC[C@H]1CN(c2ccc(N3CCC(=C(C#N)Cc4ccccc4)CC3)c(F)c2)C(=O)O1,98 to 100 °C
9,CC(CN1CCOCC1)C(=O)c1ccc(C(C)(C)C)cc1 (centres undefined),71 to 73 °C
10,CS(=O)(=O)c1ccc(-c2cc(-n3ccc(C(F)(F)F)n3)c3ccccc3n2)cc1,194 to 196 °C
11,O=S(=O)(c1cccs1)N(CC(F)(F)F)c1cccc2cc(-c3nccs3)[nH]c12,194 to 195 °C
12,CC(=O)Nc1nc(-c2cc(Cl)nc(Cl)c2)cs1,301 °C
13,COc1c(C)c2c(c(O)c1CC1=C(C)CC(C(=O)O)C1)C(=O)OC2 (centres undefined),208 to 211 °C
14,COCc1cccc(C(C#N)c2nc(OC)cc(OC)n2)c1[N+](=O)[O-] (centres undefined),112 to 113 °C
15,COc1nc(-c2cccc(Cl)c2)c2cc(C(=O)N(C)OC)ccc2n1,118 °C
16,Oc1cc(-c2nn3c(c2Cl)CCCC3)c(F)cc1Cl,177 to 178 °C
17,COC(=O)c1ccc(S(C)(=O)=O)c(C=NO)c1C,123 to 129 °C
18,COc1ccc(-c2sc3c(c2C)c(=O)c(C#N)cn3Cc2ccccc2F)cc1,215 to 216 °C
19,Cc1c(C(=O)O)oc2c(C(C)(C)C)cc(C(C)(C)C)c(O)c12,241 to 243 °C
20,CC1(C)OCC(COc2cc(O)nc(N)n2)O1 (centres undefined),258 °C
21,CCC(CC)Oc1cc(C)nc2c1nc(C)c(=O)n2-c1c(C)cc(C)cc1C,215 to 217 °C
22,CC(C)c1nc2c(c(-c3ccc(F)cc3)c1CO)CCCC2(C)C,146 to 149 °C
23,Cc1nc2cc(Sc3cccc4cnccc34)c([N+](=O)[O-])cc2s1,217 to 220 °C
24,COC(COc1cccc2c(OCC(OC)OC)cccc12)OC,117 °C
25,CC1=C(C(=O)OCCCO[N+](=O)[O-])C(c2cccc([N+](=O)[O-])c2)C(C(=O)OCCCO[N+](=O)[O-])=C(N)N1 (centres undefined),145 to 146 °C

row,SMILES,melting point
1,O=C(NCS(=O)(=O)c1ccccc1)c1cc(Cl)nc(Cl)c1,209 to 210 °C
2,CCC1CCCCN1C(=O)C=Cc1c(-c2cccc(Cl)c2)nn2ccccc12 (centres undefined),100 to 104 °C
3,COc1cccc(SC(CC(=O)c2ccccc2)c2cccc([N+](=O)[O-])c2)c1 (centres undefined),105 °C
4,Cc1c2c(nn1CCO)c(N)nc1ccccc12,226 to 228 °C
5,CCOC(=O)c1cc(=O)c(O)c(-c2ccccc2)o1,155 to 157 °C
6,Cc1nc(N2CCN(Cc3ccccc3)C2=N)sc1C(=O)NCc1ccccc1,125 to 126 °C
7,CCSc1sc(C(=O)N2CCCC2)c2c1-c1oncc1C(C)(C)C2,91 to 93 °C
8,CNc1nc(Cl)nc2c1ncn2C1SC(CO)C(O)C1O (centres undefined),220 to 222 °C
9,CCCc1c(OCCOc2cccc(C(=O)OCC)c2)ccc(C(C)=O)c1O,58 to 60 °C
10,Cc1c(CO)c(CO)c2sc3ccccc3n12,138 to 139 °C
11,OCCCOc1ccc(-c2ccccc2)cc1,123 to 124 °C
12,CCCCC(CC)Cn1c2ccc(Br)cc2c2cc(Br)ccc21 (centres undefined),62.4 to 63.6 °C
13,CCOC(=O)c1sc(-n2cn[nH]c2=O)nc1C,165 to 167 °C
14,O=[N+]([O-])c1cccc(C(F)(F)F)c1NCC(O)CO (centres undefined),117 °C
15,CCOC(=O)C(C)(C)Oc1ccc(C#CC(=O)c2ccc(Cl)cc2)cc1,68 to 70 °C
16,COc1cccc(CC(=O)O)c1OCCCn1cc(C(=O)NCc2ccc(Cl)cc2Cl)c(OC(C)C)n1,134 to 135 °C
17,O=C(N[C@@H]1C(=O)N[C@@H]1CO)OCc1ccccc1,98 to 100 °C
18,CCOC(=O)/C=C/c1ccc(OCCOC)cc1OCc1ccc(Cl)cc1Cl,101 °C
19,COc1ccc(C=NO)c(Cl)c1O,174 to 176 °C
20,O[C@H]1CN(Cc2ccccc2)CC[C@@H]1c1ccc(Br)cc1 (racemic),125 to 129 °C
21,CC(=O)Oc1cccc(-c2cc(-c3ccncc3)c(C#N)c(=O)[nH]2)c1,284 to 286 °C
22,COc1ccc(-c2nc(Sc3ccccc3)n(C)c2-c2ccc(OC)cc2)cc1,115 to 117 °C
23,O=C1C[C@@H]2[C@@H](CC[C@@H](O)COc3cccc(Cl)c3)[C@H](O)C[C@@H]2O1,102 to 104 °C
24,CC(C)(O)c1ccc2c(c1)SC(c1ccccc1)C(c1ccc3c(c1)NC(=O)CO3)=C2 (centres undefined),241 to 245 °C
